Results taken from patent US10168342B2, “Lipid probes and uses thereof” (THE SCRIPPS RESEARCH INSTITUTE, priority 2015, dated 2019).
pIC50: −log10 of the molar value. Read-outs that look alike come from different tables or passages of the source.

Columns and labels:
[1] = target: T1, AEA-DA lipid probe targets in Neuro2a cells (Mus musculus, UniProt Q9R1J0); details: for SILAC ratio, NSDHL (Q15738): Neuro2a cells, AEA-DA probe
T1 sequence (Q9R1J0 1-362): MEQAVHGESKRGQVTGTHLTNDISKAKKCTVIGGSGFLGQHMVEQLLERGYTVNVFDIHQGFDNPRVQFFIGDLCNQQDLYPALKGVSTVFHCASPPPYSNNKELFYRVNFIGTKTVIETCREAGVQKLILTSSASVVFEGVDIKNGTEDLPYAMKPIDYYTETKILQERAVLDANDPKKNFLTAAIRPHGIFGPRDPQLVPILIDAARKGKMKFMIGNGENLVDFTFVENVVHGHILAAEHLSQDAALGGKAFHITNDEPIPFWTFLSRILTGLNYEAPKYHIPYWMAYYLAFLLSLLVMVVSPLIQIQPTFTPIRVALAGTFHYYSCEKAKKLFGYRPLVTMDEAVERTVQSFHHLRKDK

[2] = tested on: NAEs, NATs, AA and 2-AG in Neuro2a cells; assay: Targeted LC-MS (MRM) analysis of lipids from Neuro2a cells; format: cell-based, mouse; details: for NAEs when co-treated with PF-7845 (1 μM) / AA levels: 10 μM; for AA levels / 2-AG levels / cellular concentrations of NAEs and NATs: Neuro2a cells; for 2-AG levels / cellular concentrations of NAEs and NATs: 10 μM (PF-7845 1 μM); for cellular concentrations of NAEs and NATs: 6 h
Description: Discovery metabolite profiling was performed as described by Saghatelian et al., “Assignment of endogenous substrates to enzymes by global metabolite profiling,” Biochemistry 43:14332-14339 (2004) with several modifications. […] The media from the cells was removed and cells were washed with DPBS (2×5.0 mL) before adding freshly prepared media solutions containing vehicle or compound. After incubating for 6 h at 37° C. and subsequent removal of the media, the cells were harvested by scrapping in cold DPBS (3 mL) and pelleted by centrifugation in glass vials. The pellets were washed once with cold DPBS (3 mL) and then cold […] (2:1) (3 mL) was added. After vortexing, the vials were centrifuged (3,000×g, 10 min, 4° C.) and the bottom (organic) layer was transferred to a new glass vial and concentrated under a stream of N2. Samples were stored at −80° C. until the day of analysis when they were reconstituted in Mobile Phase A (100 μL, see below).
Neuro2a cells were treated and lipids extracted as described above. A mixture of internal standards [AEA-d4 (10 pmol), 2-AG-d5 (100 pmol), AA-d8 (100 pmol), PEA-d4 (100 pmol), PDA (1.0 nmol)] was added to the organic phase prior to extracting cells. NAEs, MAGs, AA and NATs were analyzed similarly to previously described methods (Saghatelian et al., 2004). The following MS parameters were used to measure the indicated metabolites by MRM (precursor ion, product ion, collision energy, polarity): NAE 20:4 (AEA) (348, 62, 12, positive), AEA-d4 (352, 66, 12, positive), NAE 16:0 (PEA) (300, 62, 12, positive), PEA-d4 (304, 62, 12, positive), NAE 18:0 (328, 62, 12, positive), NAE 18:1 (326, 62, 12, positive), NAE 18:2 (324, 62, 12, positive), 2-AG (379, 287, 8, positive), 2-AG-d5 (384, 287, 8, positive), AA (303, 259, 4, negative), AA-d8 (311, 267, 4, negative), NAT 20:4 (410, 80, 35, negative), NAT 22:1 (444, 80, 35, negative), NAT 24:1 (472, 80, 35, negative), NAT 24:0 (474, 80, 35, negative), NAT 26:0 (502, 80, 35, negative). The indicated lipids were quantified by measuring the area under the peak relative to an internal standard (AEA-d4 for AEA and NAE 18:2; PEA-d4 for PEA, NAE 18:1 and NAE 18:0; 2-AG-d5 for 2-AG; AA-d8 for AA and 20:4 NAT; PDA for all other NATs).

[3] = target: T2, endogenous FAAH in Neuro2a lysates (Mus musculus, UniProt O08914); assay: FAAH activity by AEA hydrolysis in Neuro2a lysates; format: biochemical; details: for pIC50: read-out: IC50 against endogenous FAAH in Neuro2a lysates; for inhibition of FAAH activity in Neuro2a lysates: up to 250 μM
T2 construct: endogenous in cells; host or cells: Neuro2a membrane fraction
T2 sequence (O08914 1-579): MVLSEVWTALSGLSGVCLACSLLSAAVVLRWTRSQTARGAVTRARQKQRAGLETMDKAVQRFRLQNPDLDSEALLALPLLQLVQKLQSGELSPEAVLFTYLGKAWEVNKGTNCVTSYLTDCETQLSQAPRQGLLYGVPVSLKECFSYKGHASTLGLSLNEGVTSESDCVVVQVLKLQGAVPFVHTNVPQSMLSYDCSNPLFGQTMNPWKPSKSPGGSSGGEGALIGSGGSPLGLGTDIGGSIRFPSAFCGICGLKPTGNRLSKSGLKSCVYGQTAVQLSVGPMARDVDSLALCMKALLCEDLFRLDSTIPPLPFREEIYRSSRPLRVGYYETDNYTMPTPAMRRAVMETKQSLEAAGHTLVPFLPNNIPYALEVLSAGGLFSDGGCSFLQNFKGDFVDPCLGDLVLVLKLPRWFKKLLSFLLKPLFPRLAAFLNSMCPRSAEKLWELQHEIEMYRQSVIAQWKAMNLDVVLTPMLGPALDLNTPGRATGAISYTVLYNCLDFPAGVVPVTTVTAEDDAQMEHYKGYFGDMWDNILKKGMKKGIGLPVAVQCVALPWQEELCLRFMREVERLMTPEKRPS
Description: FAAH activity was measured by AEA hydrolysis: The membrane fraction of Neuro2a lysates (200 μL, 2.0 mg/mL) was incubated with DMSO or the test compound (1.0-250 μM) at 37° C. After 15 min, AEA-d8 (25 μM) was added and the samples were incubated for an additional 30 min and then quenched by the addition of two volumes of CHCl3:MeOH (2:1) containing pentadecanoic acid (PDA) (1.0 nmol) as an internal standard. After centrifuging (2,000×g, 5 min, 4° C.) to separate the organic and aqueous layers, the lower organic layer was transferred to a clean vial and analyzed by LC/MS as previously described. (Long et al., 2009) Pure humanized rat FAAH (Mileni et al., 2008) (5.0 ng/μL) was assayed in the same manner. Product levels were quantified by determining peak areas in relation to PDA.

| Compound | SILAC ratio, NSDHL (Q15738) ([1]; competitor 25 μM) | SILAC ratio, Nsdhl ([1]; competitor 25 μM) | SILAC ratio, NSDHL (Q15738) ([1]; competitor 200 μM) | SILAC ratio, Nsdhl ([1]; competitor 200 μM) | NAEs when co-treated with PF-7845 (1 μM) [2] | AA levels [2] | 2-AG levels [2] | cellular concentrations of NAEs and NATs [2] | pIC50 [3] | inhibition of FAAH activity in Neuro2a lysates [3] | SILAC ratio, Nsdhl ([1]; competitor 10 μM) | SILAC ratio, Nsdhl ([1]; competitor 50 μM) | SILAC ratio, Nsdhl ([1]; competitor 100 μM) |
| --- | --- | --- | --- | --- | --- | --- | --- | --- | --- | --- | --- | --- | --- |
| O=C(/C=C/c1cccnc1)NCCCCC1CCN(C(=O)c2ccccc2)CC1 [FK-866, reference compound] | 1.3 | 1.3 |  |  |  |  |  |  |  |  |  |  |  |
| CCCCC/C=C\C/C=C\C/C=C\C/C=C\CCCC(=O)NCCO [AEA, anandamide, reference compound] |  |  | 2.0 | 2.0 |  |  |  |  |  |  |  |  |  |
| CN1CCN(C(=O)c2c(-c3ccccc3)c3cc([N+](=O)[O-])ccc3n2C)CC1 [KML110, (1-Methyl-5-nitro-3-phenyl-1H-indol-2-yl)(4-methylpiperazin-1-yl)methanone] |  | 1.7 |  |  | do not produce elevations | do not affect | modest increase | elevated | < 4.00 | minimal inhibition |  |  |  |
| C=CCN(C)CCCCCCOc1ccc(C(=O)c2ccc(Br)cc2)c(F)c1 [Ro 48-8071, reference compound] | 1.3 | 1.3 |  |  |  |  |  |  |  |  |  |  |  |
| CN1CCN(C(=O)c2[nH]c3ccc([N+](=O)[O-])cc3c2-c2ccccc2)CC1 [MJN228, (4-Methylpiperazin-1-yl)(5-nitro-3-phenyl-1H-indol-2-yl)methanone] | 2.3 | 2.3 |  |  | do not produce elevations | do not affect | modest increase | elevated | < 4.00 | minimal inhibition | 1.7 | 3.0 | 4.0 |
